The values below come from US20140107021A1 (priority 2010, published 2014).

Experiment [1] addresses T1, glucagon receptor (Homo sapiens, UniProt P47871). Briefly: cell-based. Particulars: for IC50(nM) (cΛMP, inhibit 0.2 mM Glucagon): Table L. From the text:
(§1) HEK293 cells co-transfected with the receptor and luciferase gene linked to a cAMP responsive element were employed for the bioassay.
(§2) All EC50s and IC50s are reported in the following examples in nM, unless indicated otherwise.

The target of experiment [2] is T2, GLP-1 receptor (Homo sapiens, UniProt P43220).
T2 construct: expressed in transfected cells; host or cells: HEK293
Description: cAMP induction at the GLP-1 receptor (agonist activity), firefly luciferase reporter assay in HEK293 cells. In kind it is cell-based.
Text: as §1, §2
Background: In a reporter assay the amount or activity of a reporter protein is the signal.

Experiment [3] has as its target T1, glucagon receptor. Description: cAMP induction at the glucagon receptor (agonist activity), luciferase reporter assay in HEK293 cells. It counts as cell-based. More on the design: expressed in transfected cells; host or cells: HEK293. Particulars: Table E; read-out: cAMP Induction EC50.
Text: as §1, §2

Read-outs that look alike come from different tables or passages of the source. Square brackets hold non-standard residues; d marks the D form. Ends that are not written are not given here. Peptide text beside a SMILES is read from it. MCA = alpha-methylhydrocinnamic acid (2-methyl-3-phenylpropanoic acid); PEG 20 kDa = PEG of about 20 kDa linked to Cys (maleimido methoxyPEG); PLA = 3-phenyllactic acid (2-hydroxy-3-phenylpropanoic acid)

T1 sequence (P47871 26-477): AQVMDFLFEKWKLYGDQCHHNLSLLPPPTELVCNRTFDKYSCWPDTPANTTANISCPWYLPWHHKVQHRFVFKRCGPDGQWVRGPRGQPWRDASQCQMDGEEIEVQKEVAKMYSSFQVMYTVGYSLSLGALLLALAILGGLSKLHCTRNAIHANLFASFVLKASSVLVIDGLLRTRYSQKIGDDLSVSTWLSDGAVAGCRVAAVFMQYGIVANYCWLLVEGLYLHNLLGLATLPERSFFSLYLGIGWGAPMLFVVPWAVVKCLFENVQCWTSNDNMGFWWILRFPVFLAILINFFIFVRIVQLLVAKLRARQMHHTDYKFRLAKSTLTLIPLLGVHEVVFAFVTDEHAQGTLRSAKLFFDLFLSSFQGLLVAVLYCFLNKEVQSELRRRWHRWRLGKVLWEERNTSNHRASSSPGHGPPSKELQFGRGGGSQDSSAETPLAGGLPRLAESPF
T2 sequence (P43220 24-463): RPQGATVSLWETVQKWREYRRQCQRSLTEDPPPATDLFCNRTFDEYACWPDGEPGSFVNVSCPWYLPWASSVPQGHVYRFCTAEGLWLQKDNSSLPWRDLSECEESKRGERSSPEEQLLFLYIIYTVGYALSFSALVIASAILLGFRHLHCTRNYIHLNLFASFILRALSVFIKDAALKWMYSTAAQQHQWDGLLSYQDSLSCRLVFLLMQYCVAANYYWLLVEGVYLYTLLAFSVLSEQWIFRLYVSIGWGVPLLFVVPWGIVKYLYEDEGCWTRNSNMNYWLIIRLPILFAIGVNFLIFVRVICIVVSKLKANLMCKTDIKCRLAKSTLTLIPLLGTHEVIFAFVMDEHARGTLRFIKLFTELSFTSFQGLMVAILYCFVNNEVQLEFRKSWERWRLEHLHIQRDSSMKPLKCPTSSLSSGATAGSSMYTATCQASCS

Broadly, the IC50 is the concentration that inhibits the measured activity by half. Consider `CSCC[C@H](NC(=O)[C@H](CC(C)C)NC(=O)[C@H](Cc1c[nH]c2ccccc12)NC(=O)[C@H](CCC(N)=O)NC(=O)[C@@H](NC(=O)[C@H](Cc1ccccc1)NC(=O)[C@H](CC(=O)O)NC(=O)[C@@H]1CCCCNC(=O)CC[C@H](NC(=O)[C@H](CC(=O)O)NC(=O)[C@H](CC(C)C)NC(=O)[C@H](Cc2ccc(O)cc2)NC(=O)[C@H](CCCCN)NC(=O)[C@H](CO)NC(=O)[C@H](Cc2ccc(O)cc2)NC(=O)[C@H](CCC(=O)O)NC(=O)[C@H](CO)NC(=O)[C@@H](NC(=O)[C@H](Cc2ccccc2)NC(=O)[C@@H](NC(=O)CNC(=O)[C@H](CCC(=O)O)NC(=O)[C@H](C)N)[C@@H](C)O)[C@@H](C)O)C(=O)N[C@@H](CCCNC(=N)N)C(=O)N[C@@H](CCCNC(=N)N)C(=O)N[C@@H](C)C(=O)N1)C(C)C)C(=O)N[C@@H](CC(=O)O)C(=O)N[C@H](C(N)=O)[C@@H](C)O` [[A2E3, E16K20(Lactam),D28]G(2~29)], for which the IC50 in experiment [1] (read-out: Glucagon IC50, Table B) is 63 nM.
For the compound `CSCC[C@H](NC(=O)[C@H](CC(C)C)NC(=O)[C@H](Cc1c[nH]c2ccccc12)NC(=O)[C@H](CCC(N)=O)NC(=O)[C@@H](NC(=O)[C@H](Cc1ccccc1)NC(=O)[C@H](CC(=O)O)NC(=O)[C@H](CCC(N)=O)NC(=O)[C@H](C)NC(=O)[C@H](CCCNC(=N)N)NC(=O)[C@H](CCCNC(=N)N)NC(=O)[C@@H]1CCC(=O)NCCCC[C@H](NC(=O)[C@H](CO)NC(=O)[C@H](Cc2ccc(O)cc2)NC(=O)[C@H](CC(=O)O)NC(=O)[C@H](CO)NC(=O)[C@@H](NC(=O)[C@@H](O)Cc2ccccc2)[C@@H](C)O)C(=O)N[C@@H](Cc2ccc(O)cc2)C(=O)N[C@@H](CC(C)C)C(=O)N[C@@H](CC(=O)O)C(=O)N1)C(C)C)C(=O)N[C@@H](CC(=O)O)C(=O)N[C@H](C(N)=O)[C@@H](C)O` [[PLA6, D9, K12E16(Lactam), D28]G(6-29)] (HELM PEPTIDE1{[O=C([C@@H](O)Cc1ccccc1)[*:2]].T.S.D.Y.S.K.Y.L.D.E.R.R.A.Q.D.F.V.Q.W.L.M.D.T.[am]}$PEPTIDE1,PEPTIDE1,7:R3-11:R3$$$V2.0), the IC50 in experiment [1] (Glucagon IC50 (nM), Table B) turned out to be 63 nM.
The term EC50 denotes the midpoint of the concentration-response curve. As for `CSCC[C@H](NC(=O)[C@H](CC(C)C)NC(=O)[C@H](Cc1c[nH]c2ccccc12)NC(=O)[C@H](CCC(N)=O)NC(=O)[C@@H](NC(=O)[C@H](Cc1ccccc1)NC(=O)[C@H](CC(=O)O)NC(=O)[C@@H]1CCCCNC(=O)CC[C@H](NC(=O)[C@H](CC(=O)O)NC(=O)[C@H](CC(C)C)NC(=O)[C@H](Cc2ccc(O)cc2)NC(=O)[C@H](CCCCN)NC(=O)[C@H](CO)NC(=O)[C@H](Cc2ccc(O)cc2)NC(=O)[C@H](CCC(=O)O)NC(=O)[C@H](CO)NC(=O)[C@@H](NC(=O)[C@@H](O)Cc2ccccc2)[C@@H](C)O)C(=O)N[C@@H](CCCNC(=N)N)C(=O)N[C@@H](CCCNC(=N)N)C(=O)N[C@@H](C)C(=O)N1)C(C)C)C(=O)N[C@@H](CC(N)=O)C(=O)N[C@H](C(=O)NCC(=O)N1CCC[C@H]1C(=O)N[C@@H](CO)C(=O)N[C@@H](CO)C(=O)NCC(=O)N[C@@H](C)C(=O)N1CCC[C@H]1C(=O)N1CCC[C@H]1C(=O)N1CCC[C@H]1C(=O)N[C@@H](CO)C(N)=O)[C@@H](C)O` [[PLA6, E9, E16K20(Lactam)]], the IC50 in experiment [1] (Glu ICso (nM), Table A, Glu = glucagon) was determined as 20 nM; in experiment [1] (Glucagon IC50 (nM), Table C), 20 nM. For the same compound, the EC50 came to 20 nM in experiment [2] (GLP-1 EC50 (nM), Table C) and 20 nM in experiment [2] (GLP-1 ECso (nM), Table A).
As to `CSCC[C@H](NC(=O)[C@H](CC(C)C)NC(=O)[C@H](Cc1c[nH]c2ccccc12)NC(=O)[C@H](CCC(N)=O)NC(=O)[C@@H](NC(=O)[C@H](Cc1ccccc1)NC(=O)[C@H](CC(=O)O)NC(=O)[C@H](CCC(N)=O)NC(=O)[C@H](C)NC(=O)[C@H](CCCNC(=N)N)NC(=O)[C@H](CCCNC(=N)N)NC(=O)[C@H](CO)NC(=O)[C@H](CC(=O)O)NC(=O)[C@H](CC(C)C)NC(=O)[C@H](Cc1ccc(O)cc1)NC(=O)[C@H](CCCCN)NC(=O)[C@H](CO)NC(=O)[C@H](Cc1ccc(O)cc1)NC(=O)[C@H](CCC(=O)O)NC(=O)[C@H](CO)NC(=O)[C@@H](NC(=O)[C@H](Cc1ccccc1)NC(=O)[C@@H](NC(=O)[C@@H](O)Cc1ccccc1)[C@@H](C)O)[C@@H](C)O)C(C)C)C(=O)N[C@@H](CC(N)=O)C(=O)N[C@H](C(N)=O)[C@@H](C)O` [[PLA^4, E^9]Glucagon(aa4-29)-NH2] (HELM PEPTIDE1{[O=C([C@@H](O)Cc1ccccc1)[*:2]].T.F.T.S.E.Y.S.K.Y.L.D.S.R.R.A.Q.D.F.V.Q.W.L.M.N.T.[am]}$$$$V2.0), inhibition in experiment [1] (IC50(nM) (cAMP, inhibit 0.8 mM Glucagon), Table K, inhibit 0.8 mM Glucagon) was half-maximal at 84.4 ± 19.5 nM (IC50).
`CC(C)C[C@H](NC(=O)[C@H](Cc1ccc(O)cc1)NC(=O)[C@H](CCCCN)NC(=O)[C@H](CO)NC(=O)[C@H](Cc1ccc(O)cc1)NC(=O)[C@H](CCS(=O)(=O)O)NC(=O)[C@H](CO)NC(=O)[C@@H](NC(=O)[C@H](Cc1ccccc1)NC(=O)[C@@H](NC(=O)[C@H](CC(C)C)NC(=O)[C@H](CCC(N)=O)NC(=O)[C@@H](N)CO)[C@@H](C)O)[C@@H](C)O)C(=O)N[C@@H](CC(=O)O)C(=O)N[C@@H](CO)C(=O)N[C@@H](CCCNC(=N)N)C(=O)N[C@@H](CCCNC(=N)N)C(=O)N[C@@H](C)C(=O)N[C@@H](CCC(N)=O)C(=O)N[C@@H](CC(=O)O)C(=O)N[C@@H](Cc1ccccc1)C(=O)N[C@H](C(=O)N[C@@H](CCC(N)=O)C(=O)N[C@@H](Cc1ccccc1)C(=O)N[C@@H](CC(C)C)C(=O)N[C@@H](CC(C)C)C(=O)N[C@@H](CC(N)=O)C(=O)N[C@H](C(N)=O)[C@@H](C)O)C(C)C` [[desHis^1, Leu^4, hCys^9(SO3—), Phe^25, Leu^27]Glucagon-NH2] (HELM PEPTIDE1{S.Q.L.T.F.T.S.[O=C([C@H](CCS(=O)(=O)O)N[*:1])[*:2]].Y.S.K.Y.L.D.S.R.R.A.Q.D.F.V.Q.F.L.L.N.T.[am]}$$$$V2.0): the EC50 in experiment [3] worked out at 1610 ± 1130 nM.
`CSCC[C@H](NC(=O)[C@H](CC(C)C)NC(=O)[C@H](Cc1c[nH]c2ccccc12)NC(=O)[C@H](CCC(N)=O)NC(=O)[C@@H](NC(=O)[C@H](Cc1ccccc1)NC(=O)[C@H](CC(=O)O)NC(=O)[C@H](CCC(N)=O)NC(=O)[C@H](C)NC(=O)[C@H](CCCNC(=N)N)NC(=O)[C@H](CCCNC(=N)N)NC(=O)[C@H](CO)NC(=O)[C@H](CC(=O)O)NC(=O)[C@H](CC(C)C)NC(=O)[C@H](Cc1ccc(O)cc1)NC(=O)[C@H](CCCCN)NC(=O)[C@H](CO)NC(=O)[C@H](Cc1ccc(O)cc1)NC(=O)[C@H](CCS(=O)(=O)O)NC(=O)[C@H](CO)NC(=O)[C@@H](NC(=O)[C@H](Cc1ccccc1)NC(=O)[C@@H](NC(=O)CN)[C@@H](C)O)[C@@H](C)O)C(C)C)C(=O)N[C@@H](CC(N)=O)C(=O)N[C@H](C(N)=O)[C@@H](C)O` [[hCys^9(SO3H)]Glucagon(aa4-29)-NH2] (HELM PEPTIDE1{G.T.F.T.S.[O=C([C@H](CCS(=O)(=O)O)N[*:1])[*:2]].Y.S.K.Y.L.D.S.R.R.A.Q.D.F.V.Q.W.L.M.N.T.[am]}$$$$V2.0; N-terminus assumed) gave a Kb in experiment [1] of 60.3 nM.
On to `CSCC[C@H](NC(=O)[C@H](CC(C)C)NC(=O)[C@H](Cc1c[nH]c2ccccc12)NC(=O)[C@H](CCC(N)=O)NC(=O)[C@@H](NC(=O)[C@H](Cc1ccccc1)NC(=O)[C@H](CC(=O)O)NC(=O)[C@H](CCC(N)=O)NC(=O)[C@H](C)NC(=O)[C@H](CCCNC(=N)N)NC(=O)[C@H](CCCNC(=N)N)NC(=O)[C@H](CO)NC(=O)[C@H](CC(=O)O)NC(=O)[C@H](CC(C)C)NC(=O)[C@H](Cc1ccc(O)cc1)NC(=O)[C@H](CCCCN)NC(=O)[C@H](CO)NC(=O)[C@H](Cc1ccc(O)cc1)NC(=O)[C@H](CCS(=O)(=O)O)NC(=O)[C@H](CO)NC(=O)[C@@H](NC(=O)[C@H](Cc1ccccc1)NC(=O)[C@@H](N)[C@@H](C)O)[C@@H](C)O)C(C)C)C(=O)N[C@@H](CC(N)=O)C(=O)N[C@H](C(N)=O)[C@@H](C)O` [[hCys^9(SO3H)]Glucagon(aa5-29)-NH2] (HELM PEPTIDE1{T.F.T.S.[O=C([C@H](CCS(=O)(=O)O)N[*:1])[*:2]].Y.S.K.Y.L.D.S.R.R.A.Q.D.F.V.Q.W.L.M.N.T.[am]}$$$$V2.0; N-terminus assumed), for which the Kb in experiment [1] is 170 nM.
With “FTSDYSKYLDSRRAQDFVQWLMNT-NH2 [Glucagon(aa6-29)-NH2]”, in experiment [1], the Kb was 115 nM, the “cAMP (I/A)50” value is 1730 and the “cAMP pA2” value stood at 6.94 ± 0.63.
On to “GTFTSEYSKYLDSRRAQDFVQWLMNT-NH2 [[Glu^9]Glucagon(aa4-29)-NH2]”, for which the Kb in experiment [1] was 89.1 nM.
As for “H-FTSKYSKYLDSRRAQDFVQWLMNT-NH2 [[Lys^9]Glucagon(aa6-29)-NH2]”, in experiment [1], the Kb is 263 nM, the “cAMP (I/A)50” value is given as 1990 and the “cAMP pA2” value amounted to 6.58 ± 0.60.
For “HSQGTFTSDYARYLDARRAREFIKWLVRGRG [ANK2 (Bayer peptide), reference compound]”, the “Glucagon IC50 (nM)” value in experiment [1] (Table B) is on record as “agonist”.
“[MCA6, E9, C24(20 kDaPEG)]Glucagon(aa6-29)-NII2 ([MCA]TSEYSKYLDSRRAQDFVC(PEG 20 kDa)WLMNT-NH2)”: the “IC50(nM) (cΛMP, inhibit 0.2 mM Glucagon)” value in experiment [1] was “no antagonism”.
Turning to “[PLA6, C8(1.2 kDaPEG), E9]Glucagon(aa6-29)-NH2 ({PLA}-TC(PEG 1.2 kDa)EYSKYLDSRRAQDFVQWLMNT-NH2)”, the “IC50(nM) (cΛMP, inhibit 0.2 mM Glucagon)” value in experiment [1] was “no antagonism”.
